In patent US11643437B2, “Tandem repeat cancer-targeting peptides for molecular conjugation or engineering and uses thereof in cancer theranostics” (Chang Gung Memorial Hospital, priority 2020, dated 2023):
Values belong to the molecule of their own block, whether it stands above or below them. Where no end group is shown, it is not given here.

Experiments:
[1] = biological target: peptide-binding domain of GRP78 (GRP78-PBD, amino acids 421-639) (Homo sapiens, UniProt P11021); assay: Surface plasmon resonance, GRP78-PBD binding to chip-bound N-terminal biotin-labeled CTPs/TR-CTPs; settings: N-terminal GGGGS extension, peptide immobilized on streptavidin chip; for Kd: read-out: Dissociation constant KD
Text: Biotin-labeled TR-CTPs and CTPs were synthesized (Biotools Co., Ltd, Taiwan) to evaluate kinetics of binding to GRP78 by surface plasmon resonance. TR-CTPs and CTPs were extended by five amino acids (GGGGS; SEQ ID NO: 9) at their N-termini. The N-termini were labeled with a single biotin molecule per TR-CTP/CTP through an aminohexanoic acid linkage.
Also biotin labeled were two negative control peptides, in which the L-Leu residues within the sequences of F4P6-TR-CTP and F4P13-TR-CTP were replaced with D-Leu residues (dF4P6 and dF4P13, respectively).
(§1) Streptavidin was immobilized to a sensor chip (CMS; GE Healthcare) having a matrix of carboxymethylated dextran covalently attached to a gold surface using a standard amine-coupling method according to established procedures (GE Healthcare). The biotin-labeled TR-CTPs were immobilized on the chip by flowing them over the chip at a flow rate of 5 μl/min using HBS-P+ (GE Healthcare) as the running buffer.
(§2) Sensor chips were regenerated by washing the chip surface for 30 s with glycine buffer (10 mM; pH 11.5). Chips were reused after two chip regeneration cycles followed by a 120 s wash with running buffer.

GRP78-PBD [2] = biological target: T1, GRP78-PBD (Homo sapiens, UniProt P11021); assay: Surface plasmon resonance, GRP78-PBD binding to chip-bound C-terminal biotin-labeled CTPs/TR-CTPs; settings: C-terminal GGGGSK extension, biotin on C-terminal lysine; for Kd: read-out: Dissociation constant KD
Protocol: as §1, §2
The P13-series peptides described above in Example 1 were also biotin labeled after extending them at their C-termini with the sequence GGGGSK (SEQ ID NO: 10). Biotin was conjugated to the C-terminal lysine residue using standard techniques. Binding affinities of GRP78-PBD for the sensor chip-bound peptides were determined as described above in Example 2.

GRP78-PBD [3] = biological target: T1, GRP78-PBD; assay: Surface plasmon resonance, GRP78-PBD binding to F4P6-BsAb amine-coupled to sensor chip; settings: F4P6-BsAb directly coupled to sensor chip by amine-coupling
Protocol: as §1, §2
Following expression and purification of F4P6-BsAb, the kinetics of GRP78-PDB binding to it was evaluated by surface plasmon resonance as described in Example 1 above, differing in that the F4P6-BsAb was directly coupled to the CMS sensor chip by amine-coupling.

[4] = system: TOV21G ovarian cancer target cells; assay: PBMC-mediated cell killing, xCELLigence RTCA, TOV21G; format: cell-based; settings: 12.5 nM antibody, effector-to-target ratio 10:1, 40 h incubation
Protocol: (§3) The ability of bispecific antibody-like construct F4P6-BsAb to induce cell killing by peripheral blood mononuclear cells (PBMC) was tested on TOV21G ovarian cancer target cells and N87 gastric cancer target cells.
(§4) Target cells were seeded at 2×10^4 cells per well of a 96-well electronic microtiter plate (“E-plate”; ACEA Biosciences, Inc.) and allowed to adhere for 2 h. PBMC effector cells, PBMC effector cells plus F4P6-BsAb, and PBMC effector cells plus Ctrl-BsAb that lacks the […] sequence were added to reach a final effector-to-target ratio of 10:1. The concentration of F4P6-BsAb and Ctrl-BsAb was 12.5 nM. Data was gathered and quantified using an xCELLigence Real-Time Cell Analysis system (“RTCA”; ACEA Biosciences, Inc.) as directed by the manufacturer.

[5] = system: N87 gastric cancer target cells; assay: PBMC-mediated cell killing, xCELLigence RTCA, N87; format: cell-based; settings: 12.5 nM antibody, effector-to-target ratio 10:1, 90 h incubation
Protocol: as §3, §4

T1 sequence (P11021 421-639): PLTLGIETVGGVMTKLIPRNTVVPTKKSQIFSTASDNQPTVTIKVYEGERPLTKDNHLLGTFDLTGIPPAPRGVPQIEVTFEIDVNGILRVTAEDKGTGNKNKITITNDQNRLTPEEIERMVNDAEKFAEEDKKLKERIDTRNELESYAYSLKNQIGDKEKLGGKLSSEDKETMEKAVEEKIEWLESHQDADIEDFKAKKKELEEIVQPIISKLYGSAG
Sequence of peptide-binding domain of GRP78 (GRP78-PBD, amino acids 421-639) (P11021 421-639): as above

Molecule: RPFLFPFLFY [F4P13-TR-CTP]
Association rate Kon [1]: 7.9 × 10^2 M^−1S^−1 | Dissociation rate Koff [1]: 1.7×10^−3 S^−1 | Kd [1]: 2100 nM | Association rate Kon (GRP78-PBD [2]): 1.8 × 10^3 M^−1S^−1 | Dissociation rate Koff (GRP78-PBD [2]): 1.2 × 10^−3 S^−1 | Kd (GRP78-PBD [2]): 660 nM

Molecule: RPFLPFLPY [F4P6-TR-CTP]
Association rate Kon [1]: 2.3 × 10^3 M^−1S^−1 | Dissociation rate Koff [1]: 2.8×10^−3 S^−1 | Kd [1]: 1200 nM

Molecule: RPFLPFLPYRPFLPFLPY [F5P6-TR-CTP]
Association rate Kon [1]: 8.9 × 10^2 M^−1S^−1 | Dissociation rate Koff [1]: 9.1×10^−4 S^−1 | Kd [1]: 1000 nM

B1: F4P6-BsAb: bispecific antibody-like knob-and-hole heterodimer, anti-CD3 scFv plus F4P6-TR-CTP on both Fc C-termini, SEQ ID NO 12 and 14 (protein)
chain 1: MGGRRVRWEVYISRAGYVNRQIAWRRHHRSATMGWSLILLFLVAVATRVLSQVQLVQSGAEVKKPGASVKVSCKASGYTFTRYTMHWVRQAPGQGLEWIGYINPSRGYTNYNQKFKDKATLTTDKSISTAYMELSRLRSDDTAVYYCARYYDDHYTLDYWGQGTLVTVSSGGGGSGGGGSGGGGSEIVLTQSPATLSLSPGERATLSCSASSSVSYMNWYQQKPGQAPRRWIYDTSKLASGIPARFSGSGSGTSYTLTISSLEPEDFAVYYCQQWSSNPFTFGQGTKVEIKRSGGGGSGGGGSGGGGSTGTHTCPPCPAPELAGAPSVFLFPPKPKDTLMISRTPEVTCVVVDVSHEDPEVKFNWYVDGVEVHNAKTKPREEQYNSTYRVVSVLTVLHQDWLNGKEYKCKVSNKALPAPIEKTISKAKGQPREPQVCTLPPSREEMTKNQVSLSCAVKGFYPSDIAVEWESNGQPENNYKTTPPVLDSDGSFFLVSKLTVDKSRWQQGNVFSCSVMHEALHNHYTQKSLSLSPGKGGGGSGGGGSGGGGSRPFLPFLPY
chain 2: MGGRRVRWEVYISRAGYVNRQIAWRRHHRSATMGWSLILLFLVAVATRVLSTGTHTCPPCPAPELAGAPSVFLFPPKPKDTLMISRTPEVTCVVVDVSHEDPEVKFNWYVDGVEVHNAKTKPREEQYNSTYRVVSVLTVLHQDWLNGKEYKCKVSNKALPAPIEKTISKAKGQPREPQVYTLPPCREEMTKNQVSLWCLVKGFYPSDIAVEWESNGQPENNYKTTPPVLDSDGSFFLYSKLTVDKSRWQQGNVFSCSVMHEALHNHYTQKSLSLSPGKGGGGSGGGGSGGGGSRPFLPFLPY
Kd (GRP78-PBD [3]): 1100 nM | Koff value (GRP78-PBD [3]): 9.4×10^−4 S^−1 | PBMC mediated lysis of TOV21G cells [4]: 22% | PBMC mediated lysis of N87 cells [5]: 15%

The next lines start with the values.

Association rate Kon [1]: 1.2 × 10^3 M^−1S^−1 | Dissociation rate Koff [1]: 3.4×10^−3 S^−1 | Association rate Kon (GRP78-PBD [2]): 9.7 × 10^2 M^−1S^−1 | Dissociation rate Koff (GRP78-PBD [2]): 2.0 × 10^−3 S^−1 | Kd (GRP78-PBD [2]): 2700 nM
Molecule: RLLDTNRPFLFY [P13-CTP, reference compound]

Association rate Kon [1]: 1.5 × 10^3 M^−1S^−1 | Dissociation rate Koff [1]: 3.0×10^−3 S^−1 | Kd [1]: 1900 nM
Molecule: RLLDTNRPFLPY [P6-CTP, reference compound]

Association rate Kon [1]: 1.9 × 10^3 M^−1S^−1 | Dissociation rate Koff [1]: 1.2×10^−3 S^−1 | Kd [1]: 610 nM
Molecule: RPFLFPFLFYRPFLFPFLFY [F5P13-TR-CTP]
